For this assay, the target named is Dual specificity tyrosine-phosphorylation-regulated kinase 1A (Homo sapiens, UniProt Q13627). In words: Inhibition of GST-tagged human DYRK1A using dephosphorylated MBP as substrate after 10 mins by Kinase-Glo plus luminescent kinase assay.

Usually IC50 stands for the concentration needed to halve the response being measured.

Each structure is given as a SMILES string.

For the compound `O=C(O[C@@H]1Cc2c(O)cc(O)cc2O[C@@H]1c1cc(O)c(O)c(O)c1)c1cc(O)c(O)c(O)c1` [EPIGALOCATECHIN GALLATE], the IC50 came to 13.4 µM.

Source of the values: ChEMBL document CHEMBL1932955, “Discovery of potent small molecule inhibitors of DYRK1A by structure-based virtual screening and bioassay” (Bioorg Med Chem Lett, 2012).
